Structures can show the parent of a compound that is named as a salt.
Columns and labels:
conscious rabbits = assay: Ocular response (intraocular pressure, pupil diameter) to a single topical application to one eye of conscious rabbits; type: in vivo; conditions: for intraocular pressure / pupillary dilation: in 0.9 percent (w/v) physiological saline, summary of Tables IIIA, IIIB, IV and V; for Intraocular Pressure (mm Hg) Mean Δ Control-Exp. / Intraocular Pressure (mm Hg) Treated Eye: single application; for Intraocular Pressure (mm Hg) Mean Δ: control eye minus exp. eye; for Intraocular Pressure (mm Hg) Mean Δ / Pupil Diameter (mm) Mean Δ / Intraocular Pressure (mm Hg) Exp. Eye / Pupil Diameter (mm) Exp. Eye: mean of maximal responses; for Pupil Diameter (mm) Mean Δ: difference between pairs of eyes; for Intraocular Pressure (mm Hg) Exp. Eye / Pupil Diameter (mm) Exp. Eye: single topical application
From the text: The effect of different concentrations of racemic a-methyl norepinephrine hydrochloride in 0.9 percent (w/v) physiological saline applied singly to one eye of conscious rabbits is summarized in Table I, below.
The reported pressure and pupillary responses are the means of the maximal responses based on the time courses of the responses in pairs of eyes of individual rabbits. The number in parentheses denotes the number of experimental subjects.
The mean time course of the ocular response to a 0.5 percent (w/v) solution of racemic a-methyl norepinephrine in 0.9 percent (w/v) physiological saline applied unilaterally to conscious rabbits is shown in Table II, below.
The drug was applied unilaterally (treated eye). In the third column is reported the mean pressure difference in pairs of eyes of individual rabbits. The number in parentheses denotes the number of experimental subjects.
Tables IIIA, IIIB, IV and V, below, summarize the experimental results using racemic a-methyl epinephrine, diester of a-methyl epinephrine, and diester of a-methyl norepinephrine in 0.9 percent (w/v) physiological saline.
The drug was applied unilaterally (Exp. Eye) at T = 0 hr. In the third column is reported the mean pressure difference between pairs of eyes of individual rabbits.

[1] = tested on: normal healthy volunteers; assay: Tonometry, tonography and pupil diameter after one drop to one eye of human subjects; type: in vivo; conditions: for intraocular pressures of the treated eyes: one drop of 0.1 percent (w/v), seven subjects
Procedure: Tonometry and tonography studies were performed on normal healthy volunteers using an instrument denominated The Alcon pneumatonograph, available from Alcon Laboratories, Forth Worth, Texas. One drop of proparacaine (0.5 percent w/v) was applied to each eye prior to taking tonometric readings. The tonometer was calibrated by a manometric standard prior to initiation of these studies and checked on an air standardizer on each day of use. […] Pupil diameters were measured under normal laboratory light.
Each drug discussed hereinafter was dissolved in sterile physiological saline.
The reported values are the means of the maximal responses based on the time courses of the responses in pairs of eyes of individual subjects. The numbers in parentheses denote the number of experimental subjects. Po (mm Hg) is the intraocular pressure in seated subjects, C (µl min^-1 mm Hg^-1) is the outflow facility, and F (ul min^-1) is the rate of formation of the aqueous humor (subject supine).

[2] = human, in vivo
Procedure: The blood pressure and the heart rate of all subjects given the dipivaloyl a-methyl epinephrine were measured prior to and after administration of the drop. No decrease in blood pressure or heart rate was observed.

intraocular pressure = conditions: Annals of Ophthalmology, 3, No. 3, 282 (March 1971); cited from earlier work
Solubility in water = type: physicochemical
[3] = 0.1 percent (w/v), normal subjects
[4] = 0.5 percent (w/v), normal subjects
[5] = tonographic studies on human subjects
[6] = 0.5 percent (w/v) solution, eight rabbits, time 0 hours
[7] = 0.5 percent (w/v) solution, eight rabbits, time 0.5 hours
[8] = 0.5 percent (w/v) solution, eight rabbits, time 1.0 hours
[9] = 0.5 percent (w/v) solution, eight rabbits, time 3.0 hours
[10] = 0.5 percent (w/v) solution, eight rabbits, time 5.0 hours
[11] = 0.5 percent (w/v) solution, eight rabbits, time 24.0 hours
[12] = 0.5 percent (w/v), two normal subjects
[13] = 0.5 percent (w/v), six rabbits, time 0 hours
[14] = 0.5 percent (w/v), six rabbits, time 1 hour
[15] = 0.5 percent (w/v), six rabbits, time 3 hours
[16] = 0.5 percent (w/v), six rabbits, time 4 hours

## CC(N)C(O)c1ccc(OC(=O)C(C)(C)C)c(OC(=O)C(C)(C)C)c1 (centres unmarked) [diester of a-methyl norepinephrine]
Conscious rabbits
  intraocular pressure: reducing intraocular pressure
  pupillary dilation: lack of pupillary dilation

## CNC(C)C(O)c1ccc(OC(=O)C(C)(C)C)c(OC(=O)C(C)(C)C)c1 (centres unmarked) [diester of a-methyl epinephrine]
Conscious rabbits
  intraocular pressure: reducing intraocular pressure
  pupillary dilation: lack of pupillary dilation

## CC(C)(C)NC[C@H](O)COc1nsnc1N1CCOCC1 [timolol maleate, reference compound]
[1]; [3]
  intraocular pressure response: no demonstrable pressure response
[1]; [4]
  intraocular pressure response: did give a pressure response
[1]; normal subjects, concentration not given
  pupillary response: lack of pupillary response
[1]; [5]
  outflow facility: no effect

## CNC(C)C(O)c1ccc(OC(=O)C(C)(C)C)c(OC(=O)C(C)(C)C)c1 (centres unmarked) [dipivaloyl a-methyl epinephrine]
[1]; one drop of 0.05 percent (w/v), three normal human subjects, at 1 and 3 hours
  intraocular pressure of the treated eye: decreased
[2]
  blood pressure: No decrease
  heart rate: No decrease

## CNC(C)C(O)c1ccc(O)c(O)c1 (stereo not drawn) [α-methyl Epinephrine Hydrochloride, a-methyl epinephrine hydrochloride]
Conscious rabbits; [6]
  Intraocular Pressure (mm Hg) Mean Δ Control-Exp.: −0.1 ± 0.2 mm Hg
  Intraocular Pressure (mm Hg) Treated Eye: 22.7 ± 0.6 mm Hg
Conscious rabbits; [7]
  Intraocular Pressure (mm Hg) Mean Δ Control-Exp.: 3.3 ± 0.8 mm Hg
  Intraocular Pressure (mm Hg) Treated Eye: 19.4 ± 1.3 mm Hg
Conscious rabbits; [8]
  Intraocular Pressure (mm Hg) Mean Δ Control-Exp.: 5.9 ± 0.6 mm Hg
  Intraocular Pressure (mm Hg) Treated Eye: 15.9 ± 1.2 mm Hg
Conscious rabbits; [9]
  Intraocular Pressure (mm Hg) Mean Δ Control-Exp.: 6.0 ± 0.8 mm Hg
  Intraocular Pressure (mm Hg) Treated Eye: 14.1 ± 0.5 mm Hg
Conscious rabbits; [10]
  Intraocular Pressure (mm Hg) Mean Δ Control-Exp.: 5.5 ± 0.7 mm Hg
  Intraocular Pressure (mm Hg) Treated Eye: 14.6 ± 0.6 mm Hg
Conscious rabbits; [11]
  Intraocular Pressure (mm Hg) Mean Δ Control-Exp.: 0.6 ± 0.1 mm Hg
  Intraocular Pressure (mm Hg) Treated Eye: 22.9 ± 0.9 mm Hg
Conscious rabbits
  intraocular pressure: reducing intraocular pressure
  pupillary dilation: lack of pupillary dilation
[1]; [12]
  intraocular pressure in the treated eyes: significant decrease
  mydriatic response: not associated with a mydriatic response
  time to development of the decrease of intraocular pressure: ≤ 1 h
Intraocular pressure
  lowering intraocular pressure: inactive

## CC(N)C(O)c1ccc(OC(=O)C(C)(C)C)c(OC(=O)C(C)(C)C)c1 (centres unmarked) [Compound 5, 4-(2-amino-1-hyaroxypropyt)-1,2-dipivaioyioxybenzene hydrochloride]
Solubility in water
  solubility in water: freely soluble in water

## CNCC(O)c1ccc(OC(=O)C(C)(C)C)c(OC(=O)C(C)(C)C)c1 (centres unmarked) [dipivaloyl epinephrine, reference compound]
[1]; [3]
  intraocular pressure response: no effect on intraocular pressure
[1]; [4]
  intraocular pressure response: significant decrease of intraocular pressure
  mydriasis: marked mydriasis
[1]; normal subjects, 1 hour after application
  intraocular pressure response at 1 hour: no significant pressure response

## CNC(C)C(O)c1ccc(OC(=O)C(C)(C)C)c(OC(=O)C(C)(C)C)c1 (centres unmarked) [4-(2-N-methylamino-1-hydroxypropyl)-1,2-dipivaloyloxybenzene hydrochloride]
[1]; 0.1 percent (w/v), normal subject
  pupillary response: almost complete lack of pupillary response
[1]; 24 hours
  intraocular pressures of the treated eyes: recovered
[1]; at 1 and 5 hours
  intraocular pressures of the treated eyes: significantly decreased
[1]; [5]
  outflow facility: increase
  rate of formation of the aqueous humor: reduction

## CC(N)C(O)c1ccc(O)c(O)c1 (racemic) [α-Methyl Norepinephrine, a-methyl norepinephrine]
Conscious rabbits; 0.1 percent wt. by volume
  Intraocular Pressure (mm Hg) Mean Δ: 0.9 ± 0.3 (4) mm Hg
  Pupil Diameter (mm) Mean Δ: 0.9 ± 0.4 (4) mm
  Intraocular Pressure (mm Hg) Exp. Eye: 20.6 ± 1.3 mm Hg
  Pupil Diameter (mm) Exp. Eye: 4.6 ± 0.47 mm
Conscious rabbits; 0.3 percent wt. by volume
  Intraocular Pressure (mm Hg) Mean Δ: 4.5 ± 0.3 (4) mm Hg
  Pupil Diameter (mm) Mean Δ: 1.2 ± 0.63 (4) mm
  Intraocular Pressure (mm Hg) Exp. Eye: 16.5 ± 0.3 mm Hg
  Pupil Diameter (mm) Exp. Eye: 4.4 ± 0.9 mm
Conscious rabbits; [13]
  Intraocular Pressure (mm Hg) Mean Δ Control-Exp.: 0.3 ± 0.3 (6) mm Hg
  Intraocular Pressure (mm Hg) Treated Eye: 22.8 ± 1.4 (6) mm Hg
Conscious rabbits; [14]
  Intraocular Pressure (mm Hg) Mean Δ Control-Exp.: 2.8 ± 0.9 (6) mm Hg
  Intraocular Pressure (mm Hg) Treated Eye: 20.2 ± 1.6 (6) mm Hg
Conscious rabbits; [15]
  Intraocular Pressure (mm Hg) Mean Δ Control-Exp.: 7.2 ± 0.9 (6) mm Hg
  Intraocular Pressure (mm Hg) Treated Eye: 15.8 ± 1.3 (6) mm Hg
Conscious rabbits; [16]
  Intraocular Pressure (mm Hg) Mean Δ Control-Exp.: 6.3 ± 1.2 (6) mm Hg
  Intraocular Pressure (mm Hg) Treated Eye: 16.7 ± 1.2 (6) mm Hg
Conscious rabbits; 0.5 percent wt. by volume
  Intraocular Pressure (mm Hg) Mean Δ: 6.0 ± 0.3 (4) mm Hg
  Pupil Diameter (mm) Mean Δ: 0.9 ± 0.5 (4) mm
  Intraocular Pressure (mm Hg) Exp. Eye: 15.5 ± 0.8 mm Hg
  Pupil Diameter (mm) Exp. Eye: 3.9 ± 0.4 mm
Conscious rabbits; 0.8 percent wt. by volume
  Intraocular Pressure (mm Hg) Mean Δ: 6.8 ± 0.7 (6) mm Hg
  Pupil Diameter (mm) Mean Δ: 1.1 ± 0.30 (6) mm
  Intraocular Pressure (mm Hg) Exp. Eye: 15.7 ± 1.1 mm Hg
  Pupil Diameter (mm) Exp. Eye: 4.8 ± 0.42 mm
Conscious rabbits; 1.0 percent wt. by volume
  Intraocular Pressure (mm Hg) Mean Δ: 7.4 ± 0.7 (10) mm Hg
  Pupil Diameter (mm) Mean Δ: 3.4 ± 0.4 (10) mm
  Intraocular Pressure (mm Hg) Exp. Eye: 14.3 ± 0.6 mm Hg
  Pupil Diameter (mm) Exp. Eye: 7.2 ± 0.51 mm
Intraocular pressure
  lowering intraocular pressure: inactive

From patent publication EP0067910B1, “Compounds and compositions for treatment of ocular hypertension” (priority 1981, dated 1982)
